Source: patent US20080280890A1, “HYDROXYLAMINE COMPOUNDS AND METHODS OF THEIR USE” (priority 2007, published 2008)
Where a name gives a salt, the structure may show the parent alone.

Assays:
[1] = tested on: Human neuroblastoma SKN-SH cells, resistant to doxorubicin; experiment: Chemoresistance: cancer cell viability (MTT) in presence or absence of doxorubicin; assay type: cell-based; settings: compound 50 ug/mL, MTT
Excerpt: A method for evaluating a compound's propensity to overcome cancer cell chemoresistance is described in “Caspase Inhibition Switches Doxorubicin-Induced Apoptosis To Senescence”, Abdelhadi Rebbaa, Xin Zheng, Pauline M Chou and Bernard L Mirkin, Oncogene (2003) 22, 2805-2811. Resistant human cancer cells to doxorubicin were selected by stepwise exposure to drug concentrations ranging from 10^−9 M-10^−6 M over 3 months. They were then subjected to treatment with the doxorubicin alone or in combination with hydroxylamine compounds 1-12, 16, 20, and 21 (Table 4). The cells were incubated with the drugs for 72 hours, and cell viability was measured by the MTT assay. Additionally, molecular pathways that might be associated with increased chemo-responsiveness with these compounds were investigated. p Cancer Cell Viability Data for certain hydroxylamines in the presence or absence of Doxorubicin is listed in Table 4.
A method for evaluating a compound's propensity to overcome cancer cell chemoresistance is described in “Caspase Inhibition Switches Doxorubicin-Induced Apoptosis To Senescence”, Abdelhadi Rebbaa, Xin Zheng, Pauline M Chou and Bernard L Mirkin, Oncogene (2003) 22, 2805-2811. Human neuroblastoma SKN-SH cells (ATCC Cat. No. HTB-11) were cultured in Dulbecco's Modified Eagles Medium (DMEM; Gibco, Grand Island, N.Y.) supplemented with 10% fetal bovine serum (FBS; Sigma-Aldrich, St. Louis, Mo.) at 37° C. in a 95% Air/5% CO2 atmosphere. Resistant human cancer cells to doxorubicin were selected by stepwise exposure to drug concentrations ranging from 10^−9M-10^−6M over 3 months. They were then subjected to treatment with the doxorubicin alone or in combination with hydroxylamine compounds. The cells were incubated with the drugs for 72 hours, and cell viability was measured by the MTT assay. This consists of adding 10 μl/well of MTT (5 mg/ml solution) and incubation for 4 h at 37° C. The precipitate formed is then solubilized by addition of 100 μl of HCL 0.5 N/Isopropanol and incubation for 15 hours at 37° C. The optical density is measured at 570 nm and cell survival is estimated by comparison to untreated cells. Each point represents 4 wells data represent average ± SE. Additionally, molecular pathways that might be associated with increased chemo-responsiveness with these compounds were investigated.
Cytotoxic activity of doxorubicin and hydroxylamine analogs were quantitatively determined by a colorimetric assay utilizing 3-(4,5-dimethyl-2-thiazolyl) 2,5-diphenyl tetrazolium bromide (MTT; Sigma-Aldrich, St. Louis, Mo.). Briefly, cells were seeded at 10^4 cells/well in 96-well plates and maintained in culture for 24 hours at 37° C. in DMEM supplemented with 10% FBS. Drugs were added to designated wells and cells were incubated for […], following which MTT (10 μL of 5 mg/ml solution) was added to each 100 μl well and incubated for 4 hours at 37° C. The cells were solubilized by incubation with 100 μl of HCl 0.5N in isopropanol for 15 hours at 37° C. The optical density of this solution was measured at 570 nm and the percentage of viable cells estimated by comparison with untreated control cells.

[2] = tested on: Angiogenesis in CAM model; experiment: Neovascularization on the CAM (chick chorioallantoic membrane model of angiogenesis); assay type: in vivo, chicken; settings: for Percent inhibition of angiogenesis in CAM model at 30 ug: unit assumed
Experimental: In vivo neovascularization was examined by the method previously described by Auerbach et al. (J. Dev. Biol. 41:391-394 (1974)). Ten-day old chicken embryos were purchased from Spafas, Inc. (Preston, Conn.) and were incubated at 37° C. with 55% relative humidity. In the dark, with the aid of a candling lamp, a small hole was punctured in the shell concealing the air sac with a hypodermic needle. A second hole was punctured in the shell on the broadside of the egg directly over an […] portion of the embryonic membrane, as observed during candling. An artificial air sac was created beneath the second hole by applying gentle vacuum to the first hole using a small rubber squeeze bulb. The vacuum caused the chorioallantoic membrane (CAM) to separate from the shell.
A window, approximately 1.0 cm^2, was cut in the shell over the dropped CAM with the use of a small crafts grinding wheel (Dremel, Division of Emerson Electric Company Racine, Wis.). The window allowed direct access to the underlying CAM.
A pro-angiogenic agent was added to induce new blood vessel branches on the CAM of 10-day old embryos. Filter disks of #1 filter paper (Whatman International, United Kingdom) were punched using a small puncher and were soaked in 3 mg/mL cortisone acetate (Sigma, St. Louis, Mo.) in a solution (95% ethanol and water). The disks were subsequently air dried under sterile conditions. The disks were then suspended in PBS (Phosphate Buffered Saline) and placed on growing CAMs. Filters treated with TP-H (TEMPOL-H) or TEMPOL and/or H2O2 or TP-H and/or bFGF or VEGF were placed on the first day of the 3-day incubation.
For inducing angiogenesis, sterile filter disks were saturated with bFGF (1 μg/ml) (Life Technologies, Gaithersburg, Md.) or other pro-angiogenesis factors and control disks were saturated with PBS without Calcium and Magnesium. […]
Using sterile forceps one filter/CAM was placed from the window. The window was sealed with Highland brand transparent tape.
After 24-48 hr, 10-25 ul of test agent was injected intravenously or added topically into the CAM membrane. Eight-Ten eggs/treatment group were used.
CAM tissue directly beneath filter disk was harvested from embryos treated 48 hours prior with compound or control. Tissues were washed three times with PBS. Sections were placed in a 35-mm petri dish (Nalge Nunc, Rochester, N.Y.) and examined under a SV6 stereomicroscope (Karl Zeiss, Thornwood, N.Y.) at 50× magnification.
CAM sections from Petri dish were examined using SV6 stereomicroscope (Karl Zeiss) at 50× magnification. Digital images of CAM sections from Petri dish were collected using a 3-CCD color video camera system (Toshiba America, New York, N.Y.). These images were analyzed using Image-Pro Plus software (Media Cybernetics, Silver Spring, Md.).
The number of branch points in blood vessels within the circular region superimposed to the area of a filter disk was counted for each section. After incubation at 37° C. with 55% relative humidity for 3 days, the CAM tissue directly beneath each filter disk was resected from control and treated CAM samples. Tissues were washed three times with PBS. Sections were placed in a 35-mm Petri dish (Nalge Nunc; Rochester, N.Y.) and were examined under a SV6 stereomicroscope (Karl Zeiss; Thornwood, N.Y.) at 50× magnification. Digital images of CAM sections adjacent to filters were collected using a 3-CCD color video camera system (Toshiba America; New York, N.Y.) and analyzed with the Image-Pro Plus software (Media Cybernetics; Silver Spring, Md.).
The number of vessel branch points contained in a circular region equal to the area of a filter disk was counted for each section. Percent inhibition data are expressed as the quotient of the experimental value minus the negative control value divided by the difference between the positive control value and the negative control value. […]

Compound	Mean OD (×10^−3), cancer cell viability ([1]; Dox. 10^−6 M present (+))	Mean OD (×10^−3), cancer cell viability ([1]; Dox. absent (−))	inhibition in vivo at 0.3 mg ([2]; Gallus gallus, 300 ug) [%]	inhibition in vivo at 0.03 mg ([2]; Gallus gallus, 30 ug) [%]	Percent inhibition of angiogenesis in CAM model at 30 ug ([2]; 30 ug) [%]
CC1(C)CC(CO)CC(C)(C)N1O.Cl [Compound 34, (1-hydroxy-2,2,6,6-tetramethylpiperidin-4-yl)methanol]	302.75 ×10^−3	1168.25 ×10^−3			
CC1(C)C=C(CC2CNCCO2)C(C)(C)N1O.Cl.Cl (stereo not shown) [Compound 36]	297.00 ×10^−3	1110.75 ×10^−3			
CC1(C)CC(Oc2nsnc2N2CCOCC2)C(C)(C)N1O.Cl (stereo not shown) [Compound 32, 4-(4-(1-hydroxy-2,2,5,5-tetramethylpyrrolidin-3-yloxy)-1,2,5-thiadiazol-3-yl)morpholine]	231.50 ×10^−3	985.67 ×10^−3			
CC1(C)CC(Oc2nsnc2N2CCN(c3ccccc3)CC2)CC(C)(C)N1O.Cl.Cl [Compound 53, 4-(4-phenylpiperazin-1-yl)-3-[(2,2,6,6-tetramethyl-1-hydroxypiperidinyl)-4-oxy]-1,2,5-thiadiazole]	170.00 ×10^−3	1333.75 ×10^−3			
O=C1O[C@H]([C@@H](O)CO)C(O)=C1O [Vitamin C, reference compound]			15 ± 7		
CC1(C)CC(O)CC(C)(C)N1O [TEMPOL-H HCl, 2,2,6,6-tetramethylpiperidine-1,4-diol, reference compound]				43 ± 10	
CC1(C)CC(NC(=O)CCCCC2CCSS2)CC(C)(C)N1O (stereo not shown) [Compound 49, 5-(1,2-dithialan-3-yl)-N-(1-hydroxy-2,2,6,6-tetramethylpiperidin-4-yl)pentanamide]	195.00 ×10^−3	1330.25 ×10^−3			
CC1(C)C(CO)=C(c2ccc(F)cc2)C(C)(C)N1O.Cl [Compound 59, (4-(4-fluorophenyl)-1-hydroxy-2,5-dihydro-2,2,5,5-tetramethyl-1H-pyrrol-3-yl)methanol]	352.00 ×10^−3	1105.00 ×10^−3			53
CC1(C)CC(NC(=O)C2CC2)C(C)(C)N1O.Cl (stereo not shown) [Compound 38, N-(1-hydroxy-2,2,5,5-tetramethylpyrrolidin-3-yl)cyclopropanecarboxamide]	378.50 ×10^−3	1202.75 ×10^−3			
CC1(C)CC(NC(=O)C2CC2)CC(C)(C)N1O.Cl [Compound 31, N-(1-hydroxy-2,2,6,6-tetramethylpiperidin-4-yl)cyclopropanecarboxamide]	322.25 ×10^−3	1175.25 ×10^−3			38.8
COc1cc(COC2CC(C)(C)N(O)C(C)(C)C2)cc(OC)c1OC.Cl [Compound 48, 1-Hydroxyl-4-(3,4,5-trimethoxybenzyloxy)-2,2,6,6-tetramethylpiperidine]	50.67 ×10^−3	1118.00 ×10^−3			
